According to patent US20140128418A1, “PYRAZOLE DERIVATIVES, PREPARATION METHOD THEREOF, AND COMPOSITION FOR PREVENTING AND TREATING OSTEOPOROSIS CONTAINING SAME” (EWHA UNIVERSITY-INDUSTRY COLLABORATION FOUNDATION, priority 2011, published 2014):

Key:
[1] = test system: bone loss induced by ovariectomy; test: Inhibitory effect on bone loss induced by ovariectomy in ovariectomized mouse models (tibia, μ-CT, TRAP staining); assay type: in vivo, female mice; settings: ovariectomized mice, intraperitoneal for 3 weeks at intervals of 2 days, versus control group 1 (ovariectomy)
Source text: In order to examine the inhibitory effects of the compounds on the bone loss induced by ovariectomy in ovariectomized mouse models, 8-week old female mice were divided into control groups 1 and 2 and experimental group 1, each containing 5 mice.
The mice in control group 1 and experimental group 1 were subjected to ovariectomy via laparotomy, and the mice in control group 2 were subjected to laparotomy in the same manner as in control group 1 and experimental group 1, but without ovariectomy, and served as a sham control.
The compound of Example 13 was intraperitoneally administered to the mice of experimental group 1 for 3 weeks at intervals of 2 days after 7 days of recovery from the surgery. After verification of excision of ovary of mice, both tibiae were harvested from the mice of experimental group 1 and control groups 1 and 2, and cross-sections were consecutively imaged using μ-CT (Skyscan 1076, SKYS CAN N. V.) and V-works program (Cybermed) and reconstructed into 3-dimensional images. Then, the bone volume, bone density, and the number of trabecular bones were quantified using an image analysis program.
The experimental results and statistical analysis using ANOVA (one-way analysis of variance) if verify the Newman kulseu (Newman-Keuls test) significance is verified using the […] level or less, a significance test was performed.
In FIG. 9, the bone volume is expressed as a percentage (BV/TV %) of the bone volume (BV) of the harvested tibia to the total bone volume (TV), and in FIG. 11, the number of trabecular bones is expressed as the number of trabecular bones) per 1 millimeter (mm).
Moreover, the harvested tibiae were placed in PBS, formaldehyde added, and fixed for 24 hours and then decalcified in PBS to which was added 0.5 M EDTA. […] Moreover, the number of osteoclasts was analyzed under a microscope using the Osteomeasure software program (Osteometrics Inc., USA), and the results are shown in FIG. 13, in which the quantification of osteoclasts is expressed as the number of osteoclasts per bone surface 1 millimeter (mm). […]

[2] = test system: differentiation of macrophages into osteoclasts; test: Inhibitory effect on differentiation of macrophages into osteoclasts (rhM-CSF/RANKL, TRAP staining); assay type: cell-based, mice (C57BL/6J); settings: mouse bone marrow macrophages, rhM-CSF 30 ng/mL + RANKL 200 ng/mL, 5 days, light microscope, Examples 2, 3, 7, 8, 9, 11 tested against Comparative Example 1 as control, FIGS. 1 to 6
Experimental: Bone marrow cells were harvested from 4 to 5-week old male mice (C57BL/6J). Specifically, mice were sacrificed by cervical dislocation, and femur and tibia were extracted while removing muscles adhered around the bone with scissors and soaked in phosphate buffered saline (PBS). A 1 mL syringe filled with α-minimum essential medium (α-MEM) was put into one end of the femur and tibia from which bone marrow cells were then harvested.
The bone marrow cells were cultured to obtain macrophages. Specifically, the obtained bone marrow cells were placed in a 50 mL tube and centrifuged at 1500 rpm for 5 minutes. Then, the supernatant was removed, and a 3:1 mixture of a Gey's solution and PBS was added and maintained at room temperature for about 2 to 3 minutes. After another centrifugation (1500 rpm, 5 minutes), the supernatant was removed, α-MEM was added, followed by stirring, and then the cells were cultured in a 10 cm cell culture dish at 37° C. for 24 hours. After the third centrifugation (1500 rpm, 5 minutes), the supernatant was removed, a culture medium and a macrophage differentiation factor rhM-CSF (30 ng/mL) were added, and then the cells were cultured in a 10 cm cell culture dish at 37° C. for 3 days. After 3 days, macrophages adhered to the dish were scraped and collected in a tube, followed by centrifugation (1500 rpm, 5 minutes). […]

Row | Structure (SMILES) | reduction in bone volume of the tibia (BV/TV %) ([1]; FIG. 9) | bone density of the tibia ([1]; FIG. 10) | number of trabecular bones (per 1 mm) ([1]; FIG. 11) | differentiation of macrophages into osteoclasts [2]
1 | COc1cc(/C=C/c2nn(-c3ccccn3)c(O)c2Cc2ccccc2)ccc1O [Example 13, 1-(pyridin-2-yl)-3-[(3-methoxy-4-hydroxyphenyl)-E-ethenyl]-4-benzyl-1H-pyrazol-5-ol] | less than that in control group 1 | higher | higher | 
2 | Oc1cc(-c2ccccc2)nn1-c1ccccn1 [Comparative Example 1, 3-phenyl-1-(pyridin-2-yl)-1H-pyrazol-5-ol] |  |  |  | more macrophages differentiated into osteoclasts
